Assay results: patent US20240208981A1, “NITROGEN-CONTAINING HETEROCYCLIC POLYCYCLIC COMPOUND, PREPARATION METHOD THEREFOR, AND APPLICATION THEREOF” (Shanghai Hansoh Biomedical Co., Ltd., priority 2021, published 2024)

Legend:
human OX2R = human OX2R (Homo sapiens (Human), UniProt O43614); assay: Calcium flux in cells stably expressing OX2 receptor (FLIPR, Fluo-8 AM); type: cell-based; details: for Selectivity multiple: OX1R IC50 versus OX2R IC50; for IC50: CHO-K1/human OX2R cells, inhibition of calcium flux, agonist OX-B at EC80
Sequence of human OX2R (O43614 whole entry): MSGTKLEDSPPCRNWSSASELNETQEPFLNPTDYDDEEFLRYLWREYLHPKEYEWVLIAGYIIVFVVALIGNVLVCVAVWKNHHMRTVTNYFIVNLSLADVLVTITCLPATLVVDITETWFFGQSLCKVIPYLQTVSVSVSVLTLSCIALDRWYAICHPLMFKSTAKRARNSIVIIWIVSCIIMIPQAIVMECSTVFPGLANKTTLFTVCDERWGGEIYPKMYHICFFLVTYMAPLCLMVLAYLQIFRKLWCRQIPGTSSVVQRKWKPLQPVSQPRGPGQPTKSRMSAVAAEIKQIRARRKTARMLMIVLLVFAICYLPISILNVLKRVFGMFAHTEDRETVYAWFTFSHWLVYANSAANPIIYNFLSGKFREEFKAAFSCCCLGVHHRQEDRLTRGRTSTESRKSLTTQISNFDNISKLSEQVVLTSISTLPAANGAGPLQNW
Procedure: (§1) To determine the inhibitory effect of the compounds on calcium flux in CHO-K1/human OX1R and CHO-K1/human OX2R cells.
(§2) • 1) CHO-K1/human OX1R and CHO-K1/human OX2R cell lines were cultured separately in complete medium at 37° C., 5% CO2 to 70%˜90% confluence; • 2) A 384-well cell culture plate was coated with 1× Matrigel (5 uL per well) at room temperature for 10-30 minutes; • 3) The cells were digested and resuspended in cell inoculation medium. CHO-K1/human OX1R and CHO-K1/human OX2R cell lines were inoculated into two 384-well cell culture plates respectively (8,000 cells/well/20 μL). The culture plates were incubated at 37 °C, 5% CO2 for 24 hours; • 4) The cell culture plates were taken out of the CO2 incubator and equilibrated at room temperature for 10 minutes; • 5) 1000× Fluo-8 AM was diluted with assay buffer 1 equilibrated to room temperature to obtain 1× Fluo-8 AM at a concentration of 2 μM; • 6) The culture medium in the cell culture plate was removed, and 20 μL of 1× Fluo-8 AM was added to each well. The plates were centrifuged at room temperature at 300 rpm for 60 seconds, and incubated at room temperature in the dark for 1 hour; • 7) Determination of EC80 of OX1 and OX2 receptors agonists (OX-A for OX1R assays, OX-B for OX2R assays): OX1 and OX2 receptors agonists working solutions were diluted and prepared respectively. The diluted OX1 and OX2 receptors agonists were added using FLIPR Tetra to the experimental wells of the 384-well cell culture plates corresponding to CHO-K1/human OX1R and CHO-K1/human OX2R cell lines. The data were collected, and EC80 of OX-A and OX-B was obtained according to the following experimental data processing method; • 8) Steps 1 to 7 were repeated. […] After 15 minutes, OX1 and OX2 receptors agonists were added to the plates of the two cell lines respectively according to the previously obtained EC80. The data were collected, and the IC50 of the positive compounds and the test compounds was determined.
(§3) Fluorescence signal value (RFU) was collected with FLIPR Tetra.

CYP450 1A2 = CYP450 1A2 (Homo sapiens (Human), UniProt P05177)
Sequence of CYP450 1A2 (P05177 whole entry): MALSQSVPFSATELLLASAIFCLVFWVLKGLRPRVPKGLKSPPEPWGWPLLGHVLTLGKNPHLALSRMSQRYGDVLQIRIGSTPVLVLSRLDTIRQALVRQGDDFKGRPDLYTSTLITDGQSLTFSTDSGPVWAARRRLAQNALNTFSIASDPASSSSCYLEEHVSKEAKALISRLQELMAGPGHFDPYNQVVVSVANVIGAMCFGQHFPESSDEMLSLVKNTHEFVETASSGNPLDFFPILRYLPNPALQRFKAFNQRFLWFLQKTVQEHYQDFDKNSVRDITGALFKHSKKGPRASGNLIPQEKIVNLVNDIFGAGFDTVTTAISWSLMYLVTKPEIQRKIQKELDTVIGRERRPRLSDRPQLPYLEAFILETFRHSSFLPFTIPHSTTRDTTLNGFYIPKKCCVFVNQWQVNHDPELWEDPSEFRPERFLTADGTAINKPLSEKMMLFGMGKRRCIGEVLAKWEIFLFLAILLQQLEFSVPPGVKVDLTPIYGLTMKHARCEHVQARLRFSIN
Procedure: (§4) The human liver microsome incubation system was used to rapidly predict the inhibitory effect of the compounds on CYP450 enzyme subtypes by using single-point method.
(§5) The compound of the example to be tested was weighed, diluted to 10 mM with DMSO, and then diluted to 100 μM with 100 mM phosphate buffer.
(§6) • 1. 40 μL of liver microsomes, 10 μL of substrate, and 10 μL of the test compound were added to a 96-well plate, and pre-incubated for 3 minutes. • 2. 40 μL of NADPH was added. • 3. 300 μL of acetonitrile stop solution containing an internal standard was added at 20 minutes. • 4. The sample was injected […].

CYP450 2C9 = CYP450 2C9 (Homo sapiens (Human), UniProt P11712); assay: CYP enzyme single point inhibition assay, human liver microsomes, 2C9; type: in vitro ADME; details: single-point method
Sequence of CYP450 2C9 (P11712 whole entry): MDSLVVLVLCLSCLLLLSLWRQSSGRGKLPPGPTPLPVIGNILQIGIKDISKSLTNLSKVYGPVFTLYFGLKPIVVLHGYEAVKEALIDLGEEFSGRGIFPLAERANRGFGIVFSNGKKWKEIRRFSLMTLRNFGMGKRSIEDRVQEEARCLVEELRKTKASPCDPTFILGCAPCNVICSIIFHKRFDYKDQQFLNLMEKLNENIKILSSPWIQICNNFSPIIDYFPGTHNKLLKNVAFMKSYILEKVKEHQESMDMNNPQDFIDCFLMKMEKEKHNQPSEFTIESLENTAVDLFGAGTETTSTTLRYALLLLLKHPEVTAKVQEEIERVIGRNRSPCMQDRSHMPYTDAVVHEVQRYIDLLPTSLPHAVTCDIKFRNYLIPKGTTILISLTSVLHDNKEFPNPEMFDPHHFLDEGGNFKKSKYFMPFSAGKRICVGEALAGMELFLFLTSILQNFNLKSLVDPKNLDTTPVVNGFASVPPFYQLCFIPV
Procedure: as §4, §5, §6

CYP450 2D6 = CYP450 2D6 (Homo sapiens (Human), UniProt P10635); assay: CYP enzyme single point inhibition assay, human liver microsomes, 2D6; type: in vitro ADME; details: single-point method
Sequence of CYP450 2D6 (P10635 whole entry): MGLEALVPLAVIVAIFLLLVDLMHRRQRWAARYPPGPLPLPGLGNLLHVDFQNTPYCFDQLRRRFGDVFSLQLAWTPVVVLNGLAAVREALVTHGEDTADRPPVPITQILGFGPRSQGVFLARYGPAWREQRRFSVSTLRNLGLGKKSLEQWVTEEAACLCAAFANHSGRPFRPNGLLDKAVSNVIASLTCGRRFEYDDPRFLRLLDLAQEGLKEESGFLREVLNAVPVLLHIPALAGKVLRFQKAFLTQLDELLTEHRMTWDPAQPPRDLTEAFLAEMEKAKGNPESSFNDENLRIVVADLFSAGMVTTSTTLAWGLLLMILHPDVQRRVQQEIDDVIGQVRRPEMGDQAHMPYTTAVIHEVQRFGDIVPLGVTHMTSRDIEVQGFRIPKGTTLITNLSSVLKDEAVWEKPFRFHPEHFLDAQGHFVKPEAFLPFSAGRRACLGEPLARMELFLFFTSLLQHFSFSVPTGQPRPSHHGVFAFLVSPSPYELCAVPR
Procedure: as §4, §5, §6

human OX1R = human OX1R (Homo sapiens (Human), UniProt O43613); assay: Calcium flux in cells stably expressing OX1 receptor (FLIPR, Fluo-8 AM); type: cell-based; details: CHO-K1/human OX1R cells; inhibition of calcium flux, agonist OX-A at EC80
Sequence of human OX1R (O43613 whole entry): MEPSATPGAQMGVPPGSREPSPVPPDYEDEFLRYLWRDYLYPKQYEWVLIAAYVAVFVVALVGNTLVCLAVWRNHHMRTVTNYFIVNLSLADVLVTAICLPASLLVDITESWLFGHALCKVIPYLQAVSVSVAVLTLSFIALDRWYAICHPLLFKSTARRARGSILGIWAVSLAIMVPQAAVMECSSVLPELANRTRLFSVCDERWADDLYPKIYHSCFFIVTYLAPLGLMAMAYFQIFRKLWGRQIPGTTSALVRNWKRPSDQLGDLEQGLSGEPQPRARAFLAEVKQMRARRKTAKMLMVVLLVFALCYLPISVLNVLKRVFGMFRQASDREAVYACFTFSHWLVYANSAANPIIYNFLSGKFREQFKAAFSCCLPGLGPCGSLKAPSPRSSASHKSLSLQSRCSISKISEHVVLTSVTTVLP
Procedure: as §1, §2, §3

in vivo = details: male, SD, rat, po, 5 mg/kg
Procedure: SD rats were used as test animals.
The plasma samples were stored at −80° C.

| SMILES | Selectivity multiple (human OX2R) | IC50 (CYP450 1A2) [µM] | IC50 (CYP450 2C9) [µM] | IC50 (CYP450 2D6) [µM] | IC50 (human OX1R) [µM] | IC50 (human OX2R) [µM] | AUC(0-inf) (in vivo) [µg·h/mL] | Cmax (in vivo) [µg/mL] | Tmax (in vivo) [min] |
| --- | --- | --- | --- | --- | --- | --- | --- | --- | --- |
| CC(C)(O)c1nc(N2C[C@H]3CN(C(=O)c4c(F)cccc4-c4ncccn4)C[C@H]3C2)ncc1F [Compound 93, ((3aR,6aS)-5-(5-fluoro-4-(2-hydroxypropan-2-yl)pyrimidin-2-yl)hexahydropyrrolo[3,4-c]pyrrol-2(1H)-yl)(2-fluoro-6-(pyrimidin-2-yl)phenyl)methanone] | 122 | > 100 | > 100 | > 100 | – | – | – | – | – |
| Cc1nc(N2C[C@H]3CN(C(=O)c4ccc(F)cc4-n4nccn4)C[C@H]3C2)nc(C(C)(C)O)c1F [Compound 94, (4-fluoro-2-(2H-1,2,3-triazol-2-yl)phenyl)((cis)-5-(5-fluoro-4-(2-hydroxypropan-2-yl)-6-methylpyrimidin-2-yl)hexahydropyrrolo[3,4-c]pyrrol-2(1H)-yl)methanone] | 48 | – | – | – | 1.2 | 0.0252 | – | – | – |
| Cc1cc(C(C)(C)O)nc(N2C[C@H]3CN(C(=O)c4c(F)cccc4-n4nccn4)C[C@H]3C2)n1 [Compound 3, (2-fluoro-6-(2H-1,2,3-triazol-2-yl)phenyl)((3aR,6aS)-5-(4-(2-hydroxypropan-2-yl)-6-methylpyrimidin-2-yl)hexahydropyrrolo[3,4-c]pyrrol-2(1H)-yl)methanone] | 83 | – | – | – | 3.7 | 0.0444 | – | – | – |
| Cc1cc(N2C[C@H]3CN(C(=O)c4c(F)cccc4-n4nccn4)C[C@H]3C2)nc(C(C)(C)O)c1 [Compound 60, (2-fluoro-6-(2H-1,2,3-triazol-2-yl)phenyl)((3R,6S)-5-(6-(2-hydroxypropan-2-yl)-4-methylpyridin-2-yl)hexahydropyrrolo[3,4-c]pyrrol-2(1H)-yl)methanone] | 244 | > 100 | – | – | 13.5 | 0.0552 | – | – | – |
| CC(C)(O)c1nc(N2C[C@H]3CN(C(=O)c4c(F)cccc4-n4nccn4)C[C@H]3C2)ccc1F [Compound 91, ((3aR,6aS)-5-(5-fluoro-6-(2-hydroxypropanyl)pyridin-2-yl)hexahydropyrrolo[3,4-c]pyrrol-2(1H)-yl)(2-fluoro-6-(2H-1,2,3-triazol-2-yl)phenyl)methanone] | 88 | – | – | – | 3.16 | 0.0359 | – | – | – |
| Cc1cc(C)nc(N2C[C@H]3CN(C(=O)c4c(F)cccc4-n4ncc(C5CC5)n4)C[C@H]3C2)n1 [Compound 43, (2-(4-cyclopropyl-2H-1,2,3-triazol-2-yl)-6-fluorophenyl)((3aR,6aS)-5-(4,6-dimethylpyrimidin-2-yl)hexahydropyrrolo[3,4-c]pyrrol-2(1H)-yl)methanone] | 102 | – | – | – | 10.2 | 0.0999 | – | – | – |
| Cc1cc(C(C)(C)F)nc(N2C[C@H]3CN(C(=O)c4c(F)cccc4-n4nccn4)C[C@H]3C2)n1 [Compound 57, (2-fluoro-6-(2H-1,2,3-triazol-2-yl)phenyl)((3aR,6aS)-5-(4-(2-fluoropropan-2-yl)-6-methylpyrimidin-2-yl)hexahydropyrrolo[3,4-c]pyrrol-2(1H)-yl)methanone] | 314 | – | – | – | 3.05 | 0.0097 | 0.279 | 0.11 | 30 |
| Cc1ccc(N2C[C@H]3CN(C(=O)c4c(F)cccc4-n4nccn4)C[C@H]3C2)nc1C(C)(C)O [Compound 48, (2-fluoro-6-(2H-1,2,3-triazol-2-yl)phenyl)((3aR,6aS)-5-(6-(2-hydroxypropan-2-yl)-5-methylpyridin-2-yl)hexahydropyrrolo[3,4-c]pyrrol-2(1H)-yl)methanone] | 328 | – | – | – | 24.4 | 0.0745 | – | – | – |
| Cc1cc(C)nc(N2C[C@H]3CN(C(=O)c4ccccc4-c4nc5ccccc5o4)C[C@H]3C2)n1 [Compound 50, (2-(benzooxazol-2-yl)phenyl)((3aR,6aS)-5-(4,6-dimethylpyrimidin-2-yl)hexahydropyrrolo[3,4-c]pyrrol-2(1H)-yl)methanone] | 82 | – | – | – | 5.84 | 0.0711 | – | – | – |
| Cc1nc(N2C[C@H]3CN(C(=O)c4cccc(F)c4-n4nccn4)C[C@H]3C2)nc(C(C)(C)O)c1F [Compound 95, (3-fluoro-2-(2H-1,2,3-triazol-2-yl)phenyl)((cis)-5-(5-fluoro-4-(2-hydroxypropan-2-yl)-6-methylpyrimidin-2-yl)hexahydropyrrolo[3,4-c]pyrrol-2(1H)-yl)methanone] | 49 | > 100 | > 100 | > 100 | – | – | – | – | – |
| Cc1cc(C(C)(C)O)nc(N2C[C@H]3CN(C(=O)c4c(F)cccc4-c4ncccn4)C[C@H]3C2)n1 [Compound 56, (2-fluoro-6-(pyrimidin-2-yl)phenyl)((3R,6S)-5-(4-(2-hydroxypropan-2-yl)-6-methylpyrimidin-2-yl)hexahydropyrrolo[3,4-c]pyrrol-2(1H)-yl)methanone] | 405 | – | – | – | 3.32 | 0.0082 | – | – | – |
| Cc1nc(N2C[C@H]3CN(C(=O)c4c(F)cccc4-c4ccccn4)C[C@H]3C2)nc(C(C)(C)O)c1F [Compound 97, ((3aR,6aS)-5-(5-fluoro-4-(2-hydroxypropan-2-yl)-6-methylpyrimidin-2-yl)hexahydropyrrolo[3,4-c]pyrrol-2(1H)-yl)(2-fluoro-6-(pyridin-2-yl)phenyl)methanone] | 36 | – | – | – | – | – | – | – | – |
| Cc1cc(N2C[C@H]3CN(C(=O)c4c(O)cccc4-n4nccn4)C[C@H]3C2)nc(C(C)(C)O)c1 [Compound 85, (2-hydroxy-6-(2H-1,2,3-triazol-2-yl)phenyl)((3R,6S)-5-(6-(2-hydroxypropan-2-yl)-4-methylpyridin-2-yl)hexahydropyrrolo[3,4-c]pyrrol-2(1H)-yl)methanone] | 234 | – | – | – | 13.7 | 0.0585 | – | – | – |
| Cc1cc(C)nc(N2C[C@H]3CN(C(=O)c4ccccc4OC(F)(F)C(F)F)C[C@H]3C2)n1 [Compound 45, ((3aR,6aS)-5-(4,6-dimethylpyrimidin-2-yl)hexahydropyrrolo[3,4-c]pyrrol-2(1H)-yl)(2-(1,1,2,2-tetrafluoroethoxy)phenyl)methanone] | 83 | – | – | – | 4.33 | 0.0522 | – | – | – |
